Values quoted from earlier work as cited in patent EP0002485B1, “Process for the preparation of marking compositions containing tin” (HOECHST AKTIENGESELLSCHAFT, priority 1977, dated 1979).

How the values were obtained:
[1] = time until optimum of skeletal accumulation
[2] = labelled with Tc-99m; compared with pyro- and polyphosphates

Substance: Methylendiphosphonsäure [MDP]
- Anreicherung im Skelett erreicht das Optimum [1]: zwei

Substance: 1-Hydroxyäthan-1,1-diphosphonsäure [HEDP]
- Plasmaclearance [2]: bedeutend schnellere
